Results on four compounds are retold here after ChEMBL document CHEMBL1148105, “Bioactive metabolites from a marine-derived strain of the fungus Emericella variecolor” (2002).

Values after ≈ are worked out from the molar mass of the structure shown.

Format in all cases: functional
One assay has as its system Staphylococcus aureus. The experiment in a line: Antimicrobial activity against Staphylococcus aureus.
Another assay has as its system Enterococcus faecalis. Put plainly: Antimicrobial activity against Enterococcus faecalis.
In another assay the test system is Bacillus subtilis. Put plainly: Antimicrobial activity against Bacillus subtilis.
A further assay concerns Escherichia coli. The experiment in a line: Antimicrobial activity against Escherichia coli.
A further assay concerns Proteus sp. The experiment in a line: Antimicrobial activity against Proteus sp. The settings on record: Proteus sp. (in: enterobacteria).

Usually MIC stands for the lowest concentration found to suppress growth. Regarding `C=C(C)[C@H]1COc2c(C)cc3oc4c(CC=C(C)C)ccc(O)c4c(=O)c3c2[C@@H]1O` [SHAMIXANTHONE], the minimal inhibitory concentration (MIC) with Staphylococcus aureus, in the assay with Enterococcus faecalis, in the assay on Bacillus subtilis and in the assay with Escherichia coli was 50 µg/mL (≈ 123 µM) in each case.
Take `C=C(C)[C@H]1COc2c(C)cc3oc4c(C[C@H](O)C(C)(C)O)ccc(O)c4c(=O)c3c2[C@@H]1O.O` [TAJIXANTHONE HYDRATE]: the minimal inhibitory concentration (MIC) against Staphylococcus aureus, in the assay with Enterococcus faecalis, in the assay with Bacillus subtilis and against Escherichia coli was 50 µg/mL each time.
In the case of `C/C=C/C1=CC(=O)[C@@H](O)[C@@H]1O` [TERREIN], the MIC against Staphylococcus aureus, against Enterococcus faecalis, with Bacillus subtilis and with Escherichia coli was 50 µg/mL (≈ 324 µM) throughout.
Turning to `C=C(C)[C@H]1COc2c(C)cc3oc4c(C[C@H](OC=O)C(C)(C)O)ccc(O)c4c(=O)c3c2[C@@H]1O` [VARIXANTHONE], the minimal inhibitory concentration (MIC) in the assay on Proteus sp. turned out to be 12.5 µg/mL (≈ 26.7 µM); in the assay on Staphylococcus aureus, 12.5 µg/mL (≈ 26.7 µM); in the assay with Enterococcus faecalis, 50 µg/mL (≈ 107 µM); in the assay with Bacillus subtilis it was 12.5 µg/mL (≈ 26.7 µM); with Escherichia coli it was 12.5 µg/mL (≈ 26.7 µM).
